Assay [1] addresses Tyrosine-protein kinase JAK1 (Homo sapiens) (UniProt P23458). Put plainly: Inhibition of JAK1 domain2 Lys1 labeling site in human A-375 cells at 5 uM by KiNativ Profiling analysis relative to control. Format: cell-based.
Assay [2] concerns the target Serine/threonine-protein kinase WNK3 (Homo sapiens) (UniProt Q9BYP7). In words: Inhibition of Wnk3 Lys2 labeling site in human A-375 cells at 0.5 uM by KiNativ Profiling analysis relative to control. Format: cell-based.
Assay [3] addresses Tyrosine-protein kinase JAK1 (Homo sapiens) (UniProt P23458). In words: Inhibition of JAK1 domain2 ACT labeling site in human A-375 cells at 5 uM by KiNativ Profiling analysis relative to control. Format: cell-based.
For assay [4], the target named is T1, Serine/threonine-protein kinase Chk1 (Homo sapiens) (UniProt O14757).
T1 sequence (whole entry): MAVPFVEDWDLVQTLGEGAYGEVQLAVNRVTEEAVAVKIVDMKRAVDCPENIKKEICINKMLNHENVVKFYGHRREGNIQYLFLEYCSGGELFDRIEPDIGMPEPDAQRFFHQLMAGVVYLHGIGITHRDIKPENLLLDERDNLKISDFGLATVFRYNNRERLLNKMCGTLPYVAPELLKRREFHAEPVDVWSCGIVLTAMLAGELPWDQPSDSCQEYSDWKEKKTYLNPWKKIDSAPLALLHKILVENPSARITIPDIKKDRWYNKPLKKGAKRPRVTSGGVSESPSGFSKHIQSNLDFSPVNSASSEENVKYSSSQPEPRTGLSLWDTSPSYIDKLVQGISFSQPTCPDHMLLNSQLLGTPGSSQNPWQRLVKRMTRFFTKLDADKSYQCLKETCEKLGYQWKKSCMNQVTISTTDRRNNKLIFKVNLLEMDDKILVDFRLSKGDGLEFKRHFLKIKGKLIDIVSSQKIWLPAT
Put plainly: Inhibition of CHK1 Lys2 labeling site harbouring DIKPENLLLDER in human A-375 cells at 0.05 uM by KiNativ Profiling analysis relative to control. Format: cell-based.

In assay [5] the target is T2, Kinase suppressor of Ras 1 (Homo sapiens) (UniProt Q8IVT5).
T2 sequence (whole entry): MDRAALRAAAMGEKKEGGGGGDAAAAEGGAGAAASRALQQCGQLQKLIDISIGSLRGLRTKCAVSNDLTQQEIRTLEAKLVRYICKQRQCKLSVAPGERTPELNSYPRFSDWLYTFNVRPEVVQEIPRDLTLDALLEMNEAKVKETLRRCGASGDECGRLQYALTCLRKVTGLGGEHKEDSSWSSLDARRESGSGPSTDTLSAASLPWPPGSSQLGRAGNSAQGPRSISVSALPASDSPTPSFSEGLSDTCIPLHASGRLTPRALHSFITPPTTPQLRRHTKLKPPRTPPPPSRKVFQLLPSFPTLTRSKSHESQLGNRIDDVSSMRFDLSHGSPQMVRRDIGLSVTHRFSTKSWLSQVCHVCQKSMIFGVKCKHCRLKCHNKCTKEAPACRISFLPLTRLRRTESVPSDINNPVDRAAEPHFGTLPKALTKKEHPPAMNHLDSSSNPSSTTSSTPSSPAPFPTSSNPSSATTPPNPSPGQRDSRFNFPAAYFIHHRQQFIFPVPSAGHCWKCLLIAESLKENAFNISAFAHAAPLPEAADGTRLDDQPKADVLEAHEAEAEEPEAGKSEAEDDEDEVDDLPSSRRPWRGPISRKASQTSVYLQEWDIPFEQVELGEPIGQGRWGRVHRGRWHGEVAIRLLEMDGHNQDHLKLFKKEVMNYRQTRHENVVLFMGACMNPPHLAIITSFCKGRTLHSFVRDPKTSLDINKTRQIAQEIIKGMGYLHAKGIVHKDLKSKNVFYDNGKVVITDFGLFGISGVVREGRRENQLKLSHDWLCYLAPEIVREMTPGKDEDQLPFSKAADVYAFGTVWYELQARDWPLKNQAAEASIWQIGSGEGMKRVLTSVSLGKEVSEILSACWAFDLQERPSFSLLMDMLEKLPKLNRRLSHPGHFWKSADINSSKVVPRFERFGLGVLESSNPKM
In words: Inhibition of KSR1 ACT labeling site harbouring SKNVFYDNGK in human A-375 cells at 0.05 uM by KiNativ Profiling analysis relative to control. It is filed as cell-based.

The target in assay [6] is Serine/threonine-protein kinase WNK2 (Homo sapiens) (UniProt Q9Y3S1). In words: Inhibition of Wnk2 Lys2 labeling site in human A-375 cells at 0.5 uM by KiNativ Profiling analysis relative to control. It is filed as cell-based.
Serine/threonine-protein kinase WNK2 (Homo sapiens), sequence (Q9Y3S1 whole entry): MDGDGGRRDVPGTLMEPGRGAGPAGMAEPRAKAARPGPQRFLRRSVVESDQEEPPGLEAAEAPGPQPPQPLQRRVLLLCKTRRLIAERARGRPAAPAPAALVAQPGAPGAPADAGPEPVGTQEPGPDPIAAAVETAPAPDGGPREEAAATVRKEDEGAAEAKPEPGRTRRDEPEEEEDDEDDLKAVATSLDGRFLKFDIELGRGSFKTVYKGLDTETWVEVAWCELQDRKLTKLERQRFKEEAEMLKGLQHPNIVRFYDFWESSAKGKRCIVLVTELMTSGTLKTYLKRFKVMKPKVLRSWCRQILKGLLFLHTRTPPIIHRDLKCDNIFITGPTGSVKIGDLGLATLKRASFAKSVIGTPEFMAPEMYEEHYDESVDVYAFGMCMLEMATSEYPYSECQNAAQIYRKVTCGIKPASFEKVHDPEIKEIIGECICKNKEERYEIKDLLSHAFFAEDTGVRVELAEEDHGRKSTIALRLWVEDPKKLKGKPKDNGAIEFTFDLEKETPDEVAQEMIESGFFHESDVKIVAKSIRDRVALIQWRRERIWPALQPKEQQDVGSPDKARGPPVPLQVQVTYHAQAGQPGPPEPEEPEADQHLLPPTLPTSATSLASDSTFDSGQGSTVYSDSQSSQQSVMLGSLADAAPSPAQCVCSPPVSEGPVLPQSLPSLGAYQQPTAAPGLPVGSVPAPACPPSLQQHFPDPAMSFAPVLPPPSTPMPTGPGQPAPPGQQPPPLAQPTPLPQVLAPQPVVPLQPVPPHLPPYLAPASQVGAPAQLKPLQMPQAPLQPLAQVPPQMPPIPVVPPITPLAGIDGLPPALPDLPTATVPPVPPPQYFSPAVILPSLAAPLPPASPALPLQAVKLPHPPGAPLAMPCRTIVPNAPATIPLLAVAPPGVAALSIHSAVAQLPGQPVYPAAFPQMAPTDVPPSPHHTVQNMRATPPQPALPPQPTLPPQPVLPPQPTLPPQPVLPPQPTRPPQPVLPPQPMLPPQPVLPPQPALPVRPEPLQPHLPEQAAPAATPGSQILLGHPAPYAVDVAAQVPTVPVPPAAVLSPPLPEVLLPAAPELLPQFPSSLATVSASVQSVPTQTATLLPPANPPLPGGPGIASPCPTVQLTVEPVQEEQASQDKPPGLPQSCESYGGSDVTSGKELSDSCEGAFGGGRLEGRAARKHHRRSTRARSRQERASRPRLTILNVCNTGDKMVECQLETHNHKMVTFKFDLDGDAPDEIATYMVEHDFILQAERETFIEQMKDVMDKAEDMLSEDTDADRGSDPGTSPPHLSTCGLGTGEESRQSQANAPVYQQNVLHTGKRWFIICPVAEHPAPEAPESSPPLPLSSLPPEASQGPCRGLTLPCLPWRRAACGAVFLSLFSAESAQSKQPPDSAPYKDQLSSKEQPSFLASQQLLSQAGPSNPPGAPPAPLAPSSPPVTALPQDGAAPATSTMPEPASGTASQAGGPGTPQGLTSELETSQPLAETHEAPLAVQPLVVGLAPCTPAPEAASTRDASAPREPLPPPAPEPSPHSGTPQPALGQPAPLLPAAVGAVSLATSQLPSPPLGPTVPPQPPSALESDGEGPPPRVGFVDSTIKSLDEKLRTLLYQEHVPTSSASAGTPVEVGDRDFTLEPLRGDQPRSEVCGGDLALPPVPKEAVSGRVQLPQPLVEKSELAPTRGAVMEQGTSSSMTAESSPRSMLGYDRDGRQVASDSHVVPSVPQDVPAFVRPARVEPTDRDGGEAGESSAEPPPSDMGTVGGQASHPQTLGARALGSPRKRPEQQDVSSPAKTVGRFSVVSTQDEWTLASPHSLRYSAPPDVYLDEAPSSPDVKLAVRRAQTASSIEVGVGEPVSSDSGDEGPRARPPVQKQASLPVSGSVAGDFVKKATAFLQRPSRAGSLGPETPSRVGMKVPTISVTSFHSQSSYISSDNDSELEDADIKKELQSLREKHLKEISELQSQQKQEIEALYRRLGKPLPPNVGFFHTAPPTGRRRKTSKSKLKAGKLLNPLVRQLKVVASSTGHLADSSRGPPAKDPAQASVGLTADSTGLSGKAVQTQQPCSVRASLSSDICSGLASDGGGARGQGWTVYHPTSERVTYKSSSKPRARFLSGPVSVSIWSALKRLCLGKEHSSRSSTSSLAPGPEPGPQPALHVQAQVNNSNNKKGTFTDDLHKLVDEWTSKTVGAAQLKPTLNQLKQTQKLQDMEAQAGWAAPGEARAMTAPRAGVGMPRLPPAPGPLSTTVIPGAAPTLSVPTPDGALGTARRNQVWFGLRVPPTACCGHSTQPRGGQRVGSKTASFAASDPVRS
The target in assay [7] is T3, Phosphatidylinositol 5-phosphate 4-kinase type-2 alpha (Homo sapiens) (UniProt P48426).
T3 sequence (whole entry): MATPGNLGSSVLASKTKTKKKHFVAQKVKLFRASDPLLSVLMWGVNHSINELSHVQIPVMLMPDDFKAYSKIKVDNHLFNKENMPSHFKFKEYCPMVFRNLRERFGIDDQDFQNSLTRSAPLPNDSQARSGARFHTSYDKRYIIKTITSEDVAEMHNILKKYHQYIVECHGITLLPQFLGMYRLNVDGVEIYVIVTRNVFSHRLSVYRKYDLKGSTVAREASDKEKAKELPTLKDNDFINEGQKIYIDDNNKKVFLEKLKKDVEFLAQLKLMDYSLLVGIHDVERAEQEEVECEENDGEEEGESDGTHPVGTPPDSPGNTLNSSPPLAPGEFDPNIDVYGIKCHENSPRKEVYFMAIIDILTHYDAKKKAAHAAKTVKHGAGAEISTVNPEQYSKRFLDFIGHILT
Put plainly: Inhibition of PIP4K2A ATP labeling site in human A-375 cells at 0.5 uM by KiNativ Profiling analysis relative to control. Format: cell-based.

The target of assay [8] is Serine/threonine-protein kinase tousled-like 2 (Homo sapiens) (UniProt Q86UE8). In words: Inhibition of TLK2 Lys1 labeling site in human A-375 cells at 5 uM by KiNativ Profiling analysis relative to control. It is filed as cell-based.
Serine/threonine-protein kinase tousled-like 2 (Homo sapiens), sequence (Q86UE8 whole entry, looked up): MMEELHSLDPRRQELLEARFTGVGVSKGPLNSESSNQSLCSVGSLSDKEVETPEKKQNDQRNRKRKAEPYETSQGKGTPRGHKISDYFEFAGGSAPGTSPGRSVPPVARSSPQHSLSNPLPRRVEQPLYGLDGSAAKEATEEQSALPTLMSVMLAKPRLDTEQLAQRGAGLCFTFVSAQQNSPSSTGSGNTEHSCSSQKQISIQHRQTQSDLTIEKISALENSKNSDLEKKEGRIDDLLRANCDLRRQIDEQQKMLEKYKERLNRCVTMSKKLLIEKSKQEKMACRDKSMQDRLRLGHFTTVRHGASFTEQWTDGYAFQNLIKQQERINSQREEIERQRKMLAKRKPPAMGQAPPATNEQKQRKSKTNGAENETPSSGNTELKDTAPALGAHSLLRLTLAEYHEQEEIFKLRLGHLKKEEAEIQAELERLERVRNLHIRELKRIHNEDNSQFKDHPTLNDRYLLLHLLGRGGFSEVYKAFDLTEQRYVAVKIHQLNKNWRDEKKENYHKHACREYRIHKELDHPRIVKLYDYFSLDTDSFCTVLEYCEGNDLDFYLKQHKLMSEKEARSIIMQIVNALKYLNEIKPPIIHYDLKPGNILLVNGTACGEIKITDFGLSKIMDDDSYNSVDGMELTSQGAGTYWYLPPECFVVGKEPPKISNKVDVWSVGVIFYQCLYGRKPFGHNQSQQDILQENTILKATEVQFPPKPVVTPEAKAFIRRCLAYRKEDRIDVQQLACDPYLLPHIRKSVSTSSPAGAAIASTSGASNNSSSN
Assay [9] addresses Tyrosine-protein kinase Lyn (Homo sapiens, UniProt P07948). In words: Inhibition of LYN (unknown origin) Lys1 labeling site by KiNativ Profiling analysis.

pIC50: −log10 of the molar value.

Tyrosine-protein kinase JAK1 (Homo sapiens), sequence (P23458 whole entry, the tested form may be a part): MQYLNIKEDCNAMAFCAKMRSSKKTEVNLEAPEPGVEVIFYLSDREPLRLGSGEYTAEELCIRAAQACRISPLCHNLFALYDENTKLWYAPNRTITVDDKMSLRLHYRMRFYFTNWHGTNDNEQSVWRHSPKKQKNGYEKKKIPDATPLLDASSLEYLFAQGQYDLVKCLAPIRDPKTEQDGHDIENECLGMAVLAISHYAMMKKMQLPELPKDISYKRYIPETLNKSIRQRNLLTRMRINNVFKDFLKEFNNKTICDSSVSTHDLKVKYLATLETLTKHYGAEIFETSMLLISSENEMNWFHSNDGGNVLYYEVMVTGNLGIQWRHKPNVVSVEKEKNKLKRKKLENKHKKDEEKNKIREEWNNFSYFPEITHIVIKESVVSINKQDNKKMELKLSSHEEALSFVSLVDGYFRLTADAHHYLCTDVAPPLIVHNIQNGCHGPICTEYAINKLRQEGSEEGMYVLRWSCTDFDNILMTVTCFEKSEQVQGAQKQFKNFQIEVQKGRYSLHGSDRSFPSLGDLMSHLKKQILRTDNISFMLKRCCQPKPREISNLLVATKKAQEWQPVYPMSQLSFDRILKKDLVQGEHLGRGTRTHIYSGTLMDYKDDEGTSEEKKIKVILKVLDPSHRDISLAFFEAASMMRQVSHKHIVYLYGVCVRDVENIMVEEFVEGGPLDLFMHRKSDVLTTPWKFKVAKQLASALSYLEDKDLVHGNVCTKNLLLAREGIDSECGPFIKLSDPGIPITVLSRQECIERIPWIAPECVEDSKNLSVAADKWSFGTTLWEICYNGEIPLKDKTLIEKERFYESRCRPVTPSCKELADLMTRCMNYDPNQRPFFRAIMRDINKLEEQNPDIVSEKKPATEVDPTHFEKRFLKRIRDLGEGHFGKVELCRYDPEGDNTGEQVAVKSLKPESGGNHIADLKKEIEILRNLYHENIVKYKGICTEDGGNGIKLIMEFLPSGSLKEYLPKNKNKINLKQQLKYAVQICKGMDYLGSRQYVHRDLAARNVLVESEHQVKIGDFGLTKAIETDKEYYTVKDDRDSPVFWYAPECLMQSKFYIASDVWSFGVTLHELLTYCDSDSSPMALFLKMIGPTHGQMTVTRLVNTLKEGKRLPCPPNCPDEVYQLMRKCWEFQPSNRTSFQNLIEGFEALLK
Tyrosine-protein kinase Lyn, sequence (P07948 whole entry): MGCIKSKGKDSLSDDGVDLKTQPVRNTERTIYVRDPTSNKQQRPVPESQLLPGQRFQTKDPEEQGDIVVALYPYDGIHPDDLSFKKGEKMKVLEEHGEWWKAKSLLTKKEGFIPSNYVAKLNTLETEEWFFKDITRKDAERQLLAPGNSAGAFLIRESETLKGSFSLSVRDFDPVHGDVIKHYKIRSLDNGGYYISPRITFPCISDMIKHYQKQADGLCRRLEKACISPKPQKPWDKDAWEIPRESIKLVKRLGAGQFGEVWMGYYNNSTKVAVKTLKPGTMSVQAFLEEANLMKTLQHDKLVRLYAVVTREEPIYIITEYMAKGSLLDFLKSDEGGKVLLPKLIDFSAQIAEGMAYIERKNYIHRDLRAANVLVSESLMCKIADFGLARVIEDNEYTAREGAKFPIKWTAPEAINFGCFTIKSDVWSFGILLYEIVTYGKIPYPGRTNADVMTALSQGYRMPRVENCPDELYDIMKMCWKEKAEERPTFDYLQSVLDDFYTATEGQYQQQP

As to `CCN1CCN(Cc2ccc(NC(=O)c3ccc(C)c(/C=C/c4cnc5[nH]ccc5c4OC)c3)cc2C(F)(F)F)CC1`, the inhibition (in general, the relative decrease from the control value, in per cent) in [1] was 73.4%; in assay [2] it was 7.9%; in assay [3], 69.2%; in [4] it was 8.3%; in [5], 8.6%; in assay [6] it was 7.9%. The inhibition in assay [7] was -5.5%; in assay [8], 27.5%. Also, the pIC50 (in general, the negative decadic logarithm of the IC50, by convention in mol/L) in assay [9] is 7.53.
With `CCN1CCN(Cc2ccc(NC(=O)c3ccc(C)c(Oc4ccnc5[nH]ccc45)c3)cc2C(F)(F)F)CC1`, the inhibition was 97.6% in assay [1]; -3% in assay [2]; 95.4% in assay [3]; 49.4% in assay [4]; 37% in [5]; -3% in assay [6]. The inhibition in assay [7] is -0.4%; in assay [8] it was 17.7%. Moreover, the pIC50 in assay [9] is 7.89.
